Patent US20240141375A1, “LENTIVIRUS FOR GENERATING CELLS EXPRESSING ANTI-CD19 CHIMERIC ANTIGEN RECEPTOR” (Umoja Biopharma, Inc., priority 2021, published 2024)

Experiments:
[1] = tested on: Bead-activated PBMCs; assay: Payload gene order: 2A detection, rapamycin enrichment and expansion of CAR-T cells; assay type: cell-based; settings: by day 22; 10 nM rapamycin
Method: The aim of this study was to determine the effect of order on the detectability and function of a lentiviral payload comprised of the following functional elements: Frb-RACR, and αCD19-CAR. The Frb-RACR element provides a selective advantage to cells when rapamycin is added to the culture. The αCD19-CAR element provides targeting of T cells to CD19+ target cells. The two elements together create CAR-T cells that enrich with rapamycin and are cytotoxic to CD19+ target cells. Two payload designs evaluated differ only in the order in which elements are expressed in the polycistronic transcript. This study tested functional aspects of the payloads in both orientations to see if differences in expression were affecting 1) payload detection by flow cytometry (2A antibody), 2) CAR-T cell rapamycin response, and 3) CAR-T cell CD19+ cell cytotoxicity.
Two payload designs evaluated: • 1. MND promoter—FRB-P2A-RACRβ-P2A-RACRγ-P2A-CAR (SEQ ID NO: 81) • 2. MND promoter—CAR-P2A-FRB-P2A-RACRβ-P2A-RACRγ (SEQ ID NO: 61)
Expansion of CAR-T cells was measured using cell counts, culture volume, and flow cytometry population frequencies to estimate total CAR-T cells. Gating requirements were different for d15 and 22; however, in each case, un-transduced cells were used as a biological negative control. […]

[2] = tested on: Nalm-6 GFP FFLUC cells; assay: Nalm-6 systemic tumor model in PBMC-humanized mice; parameters: species or system MHC I/II KO NSG female mice; settings: mouse, in vivo
Method: The aim of this study is to evaluate the efficacy of UB-VV100 and the effects of rapamycin dosing after UB-VV100 administration in a Nalm-6 systemic tumor model in PBMC-humanized mice. The UB-VV100 Viral particles comprised SEQ ID NOs: 121, 128, 131, and 132.
Lentivirus was prepared using adherent production and tiered on 293T cells by flow cytometry. Nalm-6 GFP FFLUC cells expressing luciferase and GFP were obtained from the Jensen lab, SCRI, cultured by Umoja Biopharma, and delivered in PBS for injection.
24 MHC I/II KO NSG female mice were used in the study. On study day −5 (D-5) mice were implanted with 0.5 million Nalm-6 cells via retroorbital injection.
At study day −1 mice where humanized with 10 million PBMC via IP injection. The same day all mice were imaged with an IVIS imager 15 minutes after d-Luciferin injection (15 mg/kg) to detect Nalm-6 disease burden. All mice from each tumor group were randomized according to their tumor bioluminescence (Total Flux) levels into 4 cohorts according to the Table 8 below.
At study day 0 mice from groups 3 and 4 were treated IP with 20 million viral particles of UB-VV100 in 500 ul of PBS. […]
Percentage of body weight loss was monitored during the study (FIG. 34B). […] Bone marrow, spleen, peripheral blood and tumor were collected, processed into a single cell suspension, and analyzed by flow cytometry.

[3] = tested on: unstimulated human PBMCs; assay: T cell activation (CD25) in PBMCs after vector addition, flow cytometry; assay type: cell-based; settings: 4 days after transduction; VT103 mCherry vectors 5 ul or 25 ul; Blinatumomab 1 ng/ml
Method: PBMCs were thawed, resuspended into 10 ml RPMI complete media, and the PBMCs were diluted to 1e6 cells/ml in complete RPMI media. IL-2 was added to a final concentration of 50U/ml. PBMCs were separated into 3× groups of 15 ml each for various stimulations: • Group #1—Blinatumomab added to a final concentration of 1 ng/ml • Group #2-15e6 αCD3/αCD28 Dynabeads added • Group #3—IL-2 only
For each group, 5 ml of stimulation solution was added to 3× wells of Non-TC treated 6 well plate and incubated at 37° C. for 48 hours. Beads were removed from applicable wells, cells were counted and pelleted. Cells were then resuspended in fresh complete RPMI media at 1e6 cells/ml with IL-2 at a final concentration of 50U/ml. 1 ml (1e6 cells) was added to the wells of a Non TC-treated 12 well plate. […]
After 4 days, cells were resuspended with 200 ul into wells in a 96 well V-bottom plate. […] Cells were resuspended in 50 ul of surface antibody cocktail (Anti-CD3-PerCP, Anti-CD19-FITC, Anti-CD56-APC, and Anti-CD25-BV421), incubated for 20 min at 4° C., washed in 200 ul FACS buffer, and resuspended in 100 ul FACS buffer and analyzed by flow cytometry. […]
(§1) Each group was incubated at 37° C. overnight. Beads were removed from applicable wells, cells were counted and pelleted. […]
as §1

Compound | expansion of αCD19-CAR-T cells over non-rapamycin treated cells [1] | survival [2] | CD25 expression on T cells (activation) [3]
CO[C@H]1C[C@@H]2CC[C@@H](C)[C@@](O)(O2)C(=O)C(=O)N2CCCC[C@H]2C(=O)O[C@H]([C@H](C)C[C@@H]2CC[C@@H](O)[C@H](OC)C2)CC(=O)[C@H](C)/C=C(\C)[C@@H](O)[C@@H](OC)C(=O)[C@H](C)C[C@H](C)/C=C/C=C/C=C/1C [rapamycin] | 4.3 fold | ≤ 20 study day | –
Blinatumomab: Bispecific T-cell engager with anti-CD3 moiety, used as PBMC stimulus | – | – | potently activated the T cells
